Measured values reported in US6348484B1, “Stereoisomeric indole compounds, process for the preparation of the same, and use thereof” (Lead Chemical Co., Ltd., priority 1997, dated 2002).

What was measured:
[1] = tested on: lipid peroxidation of microsome in rat liver; test: Inhibitory action against lipid peroxidation of microsome in rat liver (TBA reactive substances, absorption at 535 nm); format: biochemical
Procedure: 10 μl of microsome fraction (protein concentration; 30-50 mg/ ml) prepared from rat liver and 10 μl of a solution of a compound to be tested in ethanol are added to 0.5 ml of 0.1 M Tris hydrochloride buffer (pH7.5) containing 14 mM MgCl2, which is mixed and preincubated at 37° C. for 5 minutes. Then, 10 μl of 0.2M adenosine diphosphate, 10 μl of 12 mM FeSO4, 40 μl of NADPH reproduced system and distilled water are added to make 1 m1, mixed and reacted at 37° C. for 10 minutes.

| melting point | Inhibiting Concentration (IC50 μg/ml) ([1]; Example 7, rat liver microsome fraction, ADP/FeSO4/NADPH system, 37° C. for 10 minutes) | Inhibiting Concentration (IC50 μg/ml) ([1]; Example 8, method of Example 7, deamino form compared with synthetic (1″S, 3″S) Martefragin A) | Molecule |
| --- | --- | --- | --- |
| 138.5 to 139.5 °C |  |  | CC[C@H](C)CCc1nc(COOCc2ccccc2)c(-c2c[nH]c3ccccc23)o1 [compound 55] |
|  | 1.07 µg/mL | 1.35 µg/mL | (1″S, 3″S) Martefragin A [(1″S, 3″S)-19] |
